The supplement of paper PMC10733146

Experiments:
Test in all cases: viability relative to DMSO control (fraction); higher = less drug effect (more viable cells)
Conditions in all cases: 48 h
[1] = compound: CC1(C)CCC(CN2CCN(c3ccc(C(=O)NS(=O)(=O)c4ccc(NCC5CCOCC5)c([N+](=O)[O-])c4)c(Oc4cnc5[nH]ccc5c4)c3)CC2)=C(c2ccc(Cl)cc2)C1 [Venetoclax]
Procedure, shortened: (§1)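 Viability was measured as CellTiter-Glo luminescence relative to the median of 16 inner DMSO wells. Primary mononuclear tumour cells, fresh or cryopreserved, were Ficoll-isolated from blood or bone marrow or taken from processed lymph node. They were seeded at 4 × 10^4 cells per well into 384-well plates holding pre-plated compounds at five concentrations, one well each, and kept in RPMI-1640 with penicillin/streptomycin, L-glutamine and human serum at 37 °C and 5% CO2 for 48 h.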

[2] = compound: CCS(=O)(=O)N1CCC([C@@H](C)n2c(C)c(C(=O)NCc3c(OC)cc(C)[nH]c3=O)c3ccccc32)CC1 [CPI-169]
Procedure, shortened: as §1

[3] = compound: CCNC(=O)C[C@@H]1N=C(c2ccc(Cl)cc2)c2cc(OC)ccc2-n2c(C)nnc21 [I-BET-762]
Procedure, shortened: as §1

[4] = compound: c1cn2cc(-c3ccc4cn[nH]c4c3)nc(Nc3ccc(N4CCOCC4)cc3)c2n1 [Entospletinib]
Procedure, shortened: as §1

[5] = compound: O=C(Nc1ccc2[nH]nc(-c3ccncc3)c2c1)[C@@H]1CCN(CC(=O)N2CCN(c3ccc(-c4ncccn4)cc3)CC2)C1
Procedure, shortened: as §1

[6] = compound: C[C@H]1C[C@@H](n2c(Nc3ccc(OC(F)(F)F)cc3)nc3cc(CCC(=O)O)ccc32)CC(C)(C)C1
Procedure, shortened: as §1

[7] = compound: CC[C@H](CO)Nc1nc(NCc2ccccc2)c2ncn(C(C)C)c2n1 [Roscovitine]
Procedure, shortened: as §1

[8] = compound: COc1cc(C(=O)O)ccc1NC(=O)[C@@H]1N[C@@H](CC(C)(C)C)[C@](C#N)(c2ccc(Cl)cc2F)[C@H]1c1cccc(Cl)c1F [Idasanutlin (RS7388)]
Procedure, shortened: as §1

[9] = compound: Cn1c(CCCC(=O)O)nc2cc(N(CCCl)CCCl)ccc21 [Bendamustine]
Procedure, shortened: as §1

[10] = compound: O=C(NO)c1cccc(C(=O)NCCc2ccccc2)c1
Procedure, shortened: as §1

[11] = compound: CC[C@]1(O)C[C@@H]2CN(CCc3c([nH]c4ccccc34)[C@@](C(=O)OC)(c3cc4c(cc3OC)N(C)[C@H]3[C@@](O)(C(N)=O)[C@H](O)[C@]5(CC)C=CCN6CC[C@]43[C@@H]65)C2)C1 [Vindesine]
Procedure, shortened: as §1

[12] = compound: CO[C@H]1C[C@@H]2CC[C@@H](C)[C@@](O)(O2)C(=O)C(=O)N2CCCC[C@H]2C(=O)O[C@H]([C@H](C)C[C@@H]2CC[C@@H](OCCO)[C@H](OC)C2)CC(=O)[C@H](C)/C=C(\C)[C@@H](O)[C@@H](OC)C(=O)[C@H](C)C[C@H](C)/C=C/C=C/C=C/1C [Everolimus]
Procedure, shortened: as §1

[13] = compound: O=C1CCC(N2C(=O)c3ccccc3C2=O)C(=O)N1 [Thalidomide]
Procedure, shortened: as §1

## primary AML patient cells (S085)
[1]; 0.00064 µM
  viability: 0.916
[1]; 0.0032 µM
  viability: 0.62
[1]; 0.016 µM
  viability: 0.43
[1]; 0.08 µM
  viability: 0.355
[1]; 0.4 µM
  viability: 0.278
[2]; 0.024 µM
  viability: 1.03
[2]; 0.12 µM
  viability: 1.02
[2]; 0.6 µM
  viability: 0.96
[2]; 3 µM
  viability: 1.2
[2]; 15 µM
  viability: 0.866
[3]; 0.008 µM
  viability: 0.91
[3]; 0.04 µM
  viability: 0.903
[3]; 0.2 µM
  viability: 0.628
[3]; 1 µM
  viability: 0.326
[3]; 5 µM
  viability: 0.186
[4]; 0.024 µM
  viability: 0.979
[4]; 0.12 µM
  viability: 0.931
[4]; 0.6 µM
  viability: 0.93
[4]; 3 µM
  viability: 0.946
[4]; 15 µM
  viability: 0.939
[5]; 0.008 µM
  viability: 0.756
[5]; 0.04 µM
  viability: 0.666
[5]; 0.2 µM
  viability: 0.547
[5]; 1 µM
  viability: 0.392
[5]; 5 µM
  viability: 0.378
[6]; 0.024 µM
  viability: 1.26
[6]; 0.12 µM
  viability: 1.87
[6]; 0.6 µM
  viability: 1
[6]; 3 µM
  viability: 1
[6]; 15 µM
  viability: 0.874
[7]; 0.032 µM
  viability: 0.948
[7]; 0.16 µM
  viability: 0.844
[7]; 0.8 µM
  viability: 0.965
[7]; 4 µM
  viability: 0.91
[7]; 20 µM
  viability: 0.237
[8]; 0.032 µM
  viability: 0.576
[8]; 0.16 µM
  viability: 0.727
[8]; 0.8 µM
  viability: 0.291
[8]; 4 µM
  viability: 0.177
[8]; 20 µM
  viability: 0.155
[9]; 0.032 µM
  viability: 1.04
[9]; 0.16 µM
  viability: 1.12
[9]; 0.8 µM
  viability: 1.09
[9]; 4 µM
  viability: 0.89
[9]; 20 µM
  viability: 0.822
[10]; 0.024 µM
  viability: 1.07
[10]; 0.12 µM
  viability: 1.22
[10]; 0.6 µM
  viability: 1.11
[10]; 3 µM
  viability: 0.958
[10]; 15 µM
  viability: 0.927
[11]; 0.016 µM
  viability: 0.506
[11]; 0.08 µM
  viability: 0.368
[11]; 0.4 µM
  viability: 0.586
[11]; 2 µM
  viability: 0.267
[11]; 10 µM
  viability: 0.166
[12]; 0.0032 µM
  viability: 0.881
[12]; 0.016 µM
  viability: 0.801
[12]; 0.08 µM
  viability: 0.873
[12]; 0.4 µM
  viability: 0.745
[12]; 2 µM
  viability: 0.858
[13]; 0.032 µM
  viability: 0.962
[13]; 0.16 µM
  viability: 1.02
[13]; 0.8 µM
  viability: 0.828
[13]; 4 µM
  viability: 0.8
[13]; 20 µM
  viability: 0.899

## primary DLBCL patient cells (S082)
[1]; 0.00064 µM
  viability: 1.01
[1]; 0.0032 µM
  viability: 0.876
[1]; 0.016 µM
  viability: 0.547
[1]; 0.08 µM
  viability: 0.143
[1]; 0.4 µM
  viability: 0.0409
[2]; 0.024 µM
  viability: 0.893
[2]; 0.12 µM
  viability: 0.906
[2]; 0.6 µM
  viability: 0.87
[2]; 3 µM
  viability: 0.859
[2]; 15 µM
  viability: 0.866
[3]; 0.008 µM
  viability: 0.89
[3]; 0.04 µM
  viability: 0.865
[3]; 0.2 µM
  viability: 0.633
[3]; 1 µM
  viability: 0.246
[3]; 5 µM
  viability: 0.116
[4]; 0.024 µM
  viability: 1.04
[4]; 0.12 µM
  viability: 1.03
[4]; 0.6 µM
  viability: 0.89
[4]; 3 µM
  viability: 0.98
[4]; 15 µM
  viability: 0.926
[5]; 0.008 µM
  viability: 0.875
[5]; 0.04 µM
  viability: 0.771
[5]; 0.2 µM
  viability: 0.809
[5]; 1 µM
  viability: 0.79
[5]; 5 µM
  viability: 0.743
[6]; 0.024 µM
  viability: 0.849
[6]; 0.12 µM
  viability: 1.04
[6]; 0.6 µM
  viability: 0.914
[6]; 3 µM
  viability: 0.847
[6]; 15 µM
  viability: 0.943
[7]; 0.032 µM
  viability: 0.912
[7]; 0.16 µM
  viability: 0.84
[7]; 0.8 µM
  viability: 0.935
[7]; 4 µM
  viability: 0.975
[7]; 20 µM
  viability: 0.852
[8]; 0.032 µM
  viability: 0.954
[8]; 0.16 µM
  viability: 1.08
[8]; 0.8 µM
  viability: 1.09
[8]; 4 µM
  viability: 0.924
[8]; 20 µM
  viability: 1.13
[9]; 0.032 µM
  viability: 1.04
[9]; 0.16 µM
  viability: 1.09
[9]; 0.8 µM
  viability: 1.07
[9]; 4 µM
  viability: 1.04
[9]; 20 µM
  viability: 0.962
[10]; 0.024 µM
  viability: 0.969
[10]; 0.12 µM
  viability: 0.932
[10]; 0.6 µM
  viability: 0.951
[10]; 3 µM
  viability: 0.899
[10]; 15 µM
  viability: 0.867
[11]; 0.016 µM
  viability: 0.728
[11]; 0.08 µM
  viability: 0.56
[11]; 0.4 µM
  viability: 0.532
[11]; 2 µM
  viability: 0.421
[11]; 10 µM
  viability: 0.366
[12]; 0.0032 µM
  viability: 0.892
[12]; 0.016 µM
  viability: 0.816
[12]; 0.08 µM
  viability: 0.841
[12]; 0.4 µM
  viability: 0.782
[12]; 2 µM
  viability: 0.807
[13]; 0.032 µM
  viability: 0.969
[13]; 0.16 µM
  viability: 0.938
[13]; 0.8 µM
  viability: 0.969
[13]; 4 µM
  viability: 0.927
[13]; 20 µM
  viability: 1.01
